In US10391070B2, “Compositions and methods for treating neurological diseases or injury” (MUSC FOUNDATION FOR RESEARCH DEVELOPMENT, priority 2012, dated 2019):

Experiments:
HT22 cells [1] = assay: Glutathione determination in glutamate-treated cells; format: cell-based, mouse; conditions: HT22, 10 mM glutamate 8 hrs, 500 nM
Protocol: The content of total glutathione (reduced and oxidized) in the supernatant of cell homogenate was measured using the glutathione assay kit (Cayman Chemical) in microtiter plate assay, which utilizes an enzymatic recycling method, using glutathione reductase, for the quantification of glutathione. The sulfhydryl group of glutathione reacted with 5,5′-dithiobis-2-nitrobenzoic acid (DTNB) and produced a yellow-colored 5-thio-2-nitrobenzoic acid (TNB), which was measured at 405 nm.

c-fos = c-fos gene expression in PTZ-treated zebrafish larvae; format: in vivo, zebrafish (Danio rerio); conditions: 7 dpf zebrafish; for reduction of c-fos gene expression compared to PTZ alone: concentrations of Table 9
Protocol: Ten 7 dpf larvae were placed in 500 μL tank water in wells of a 48-well cell-culture plate and appropriate concentrations of drugs were added as in the behavior study (Table 9). After a 1 h pre-incubation period, PTZ was added to a final concentration of 15 mM in appropriate wells and larvae were incubated for a further 45 min. Fish were quickly euthanized by incubating the plate in an ice-water bath for 15 min. Fish were removed from each well and all liquid removed before freezing at −80° C. RNA was extracted using Trizol (Invitrogen) followed by the RNeasy Mini kit (Qiagen). Frozen embryos were homogenized in 800 μL Trizol using in-tube pestles and a motorized homogenizer. Following a 5-min incubation at room temperature, 200 μL chloroform was added and the samples were centrifuged at 12,000 g for 10 min. The aqueous phase was transferred to a new tube and 250 μL 100% ethanol was added and the samples mixed. This mixture was then transferred to the Qiagen minicolumn assembly and the protocol followed as described with the kit. Samples were eluted in 30 μL RNase free water and concentration was determined using the Nanodrop instrument (Thermo Fisher). cDNA was prepared using the RETROscript kit (Ambion) with 500 ng total RNA. cDNA was then diluted 1:1 with sterile dH2O and 2.5 μL of this cDNA was used in the QPCR reaction with SsoAdvanced SYBR Green Supermix (BioRad) and c-fos primers designed to span an intron-exon junction (c-fos F: […], SEQ ID NO:9; c-fos R: […], SEQ ID NO:10) ([…] each) in the BioRad CFX96 RealTime instrument. L13a and EF1a gene expression were used for normalization (Rahn et al., 2013). The following cycle conditions were used: 95° C./3 min, 40 cycles of 95° C./15 s, 62° C./30 s, followed by 95° C. 30 s and a dissociation curve. Samples were run in duplicate. The 2^−ΔΔCt method was used to quantify gene expression, whereby all gene Ct values were first normalized to Ct values of the geometric mean of the Ct of L13a and EF1a (Livak and Schmittgen, 2001). Treated samples were then normalized to the tank water control and converted to fold change.

HT22 cells [2] = assay: Intracellular ROS measurement (Rho123, CM-H2DCFDA); format: cell-based, mouse; conditions: HT22, 10 mM glutamate 8 hrs, 250 nM
Protocol: Intracellular generation of ROS was evaluated by spectrofluorometry using the membrane-permeable compound dihydrorhodamine 123 (Rho123; Invitrogen), and images were collected using 5-(and -6)-chloromethyl-2′,7′-dichlorodihydrofluorescein diacetate, acetyl ester (CM-H2DCFDA; Invitrogen). Briefly, HT-22 cells were seeded onto black walled 96-well plates at 5.0×10^3 cells per well in 75 μL of medium and maintained at 37° C. in 5% CO2 overnight prior to the initiation of experimental treatments. Cells were subsequently treated with 25 μL of medium containing glutamate (monosodium glutamate, Sigma, 1 M stock concentration in media, to achieve a final concentration of 10 mM) plus inhibitors (stock in DMSO) and maintained at 37° C. in 5% CO2. After 8 hrs, Rho123 (5 μM), CM-H2DCFDA (1 μM), or MitoSox (5 μM) and Mitotracker DR (10 nM) was added to achieve the indicated final concentrations. Cells were allowed to incubate for 20 minutes and then washed twice with Hanks Balanced Salt Solution (HBSS; Hyclone; CaCl2 1.26 mM, MgCl2-6H2O 0.493 mM, MgSO4-7H2O 0.407 mM, KCl 5.33 mM, KH2PO4 0.441 mM, NaHCO3 4.17 mM, NaCl 137.93 mM, Na2HPO4 0.338 mM, D-Glucose 5.56 mM), with a final addition of 100 μL of HBSS in which the cells were visualized. Fluorescence of the oxidized Rho123 was measured using a Fluoroskan Ascent spectrofluorometer (Labsystems). Peak excitation and emission wavelengths were 500 and 536, respectively. For fluorescent imaging of the oxidation product of CM-H2DCFDA, cells were immediately visualized using an InCell 2000 Analyzer (GE) with a 40× objective and a FITC excitation/emission filter set. Image processing was performed using ImageJ, and for all images, the microscope and image processing settings, such as levels, brightness, contrast, and exposure time were held constant across all treatment conditions.

PTZ-induced seizures = assay: PTZ-induced seizure (swim activity) model in zebrafish larvae; format: in vivo, zebrafish (Danio rerio)

Compound	depletion of total cellular GSH (HT22 cells [1])	reduction of c-fos gene expression compared to PTZ alone (c-fos)	ROS accumulation (Rho123) (HT22 cells [2])	also measured
O=C1C=C(NCc2ccccc2)C(=O)c2ccccc21 [Compound 2j, 2-(benzylamino)naphthalene-1,4-dione]	does not prevent GSH	about half	prevent the accumulation of ROS	–
O=C1C=C(NCc2cccc(Cl)c2)C(=O)c2ccccc21 [Compound 2q, 2-((3-chlorobenzyl)amino)naphthalene-1,4-dione]	does not prevent GSH	about half	prevent the accumulation of ROS	fold reduction of PTZ-induced swim activity (distance traveled) (PTZ-induced seizures; 7 dpf zebrafish, 1 h pretreatment, 15 mM PTZ, 2j 10 μM, 2h 20 μM, 2q 20 μM, 3n 8 μM): more than two fold
CC1=CC(=O)c2ccccc2C1=O [VK3, menadione, reference compound]	–	–	–	fold reduction of c-fos gene expression compared to PTZ alone (c-fos; 6 μM pre-treatment): approximately 10 fold; fold reduction of distance traveled from PTZ levels (PTZ-induced seizures; 7 dpf zebrafish, 1.5 μM): 0.5 fold; fold reduction of PTZ-induced swim behavior (PTZ-induced seizures; 7 dpf zebrafish, 3 μM): 2 fold; fold reduction of distance traveled after PTZ treatment (PTZ-induced seizures; 7 dpf zebrafish, 6 μM, 1 h pretreatment, 15 mM PTZ): more than 4 fold; concentrations reducing seizure activity (PTZ-induced seizures; PTZ-treated 6 dpf zebrafish, dose dependent): 1.5 to 6 µM
C#CCNC1=CC(=O)c2ccccc2C1=O [Compound 2h, 2-(prop-2-yn-1-ylamino)naphthalene-1,4-dione]	–	about half	–	–
menaquinones [VK2, reference compound]	does not prevent GSH	–	less effective	reduction of seizures (PTZ-induced seizures; PTZ-treated 6 dpf zebrafish, up to 100 mM): neither were found to reduce seizures
